Several values for one entry are separate records, joined by “and”; a condition that tells them apart may be missing. Equal values may be shown once. Entries after “also recorded” stand apart in the source; their conditions may differ.
How the values were obtained:
[1] = tested on: mock-infected cells (LLC-MK2, Vero E6); test: EZ-Cytox WST cell viability in mock-infected cells under the same dosing as RT-qPCR; type: cell-based; settings: tested concentration range (≤25 µM)
Procedure: (§1) Cells were seeded at 2 × 10^4 cells per well in 96-well plates and, after overnight attachment, exposed to test compounds for 72 h in maintenance medium. The final DMSO concentration was ≤0.1% (v/v) for all conditions, including vehicle controls. Cell viability was quantified using EZ-Cytox WST reagent (DoGenBio, Seoul, Republic of Korea) according to the manufacturer’s instructions; absorbance was read at 450 nm on a SpectraMax i3x microplate reader (Molecular Devices, San Jose, CA, USA). Viability for each well was normalized to the mean of vehicle-treated (mock) controls on the same plate and expressed as percent viability. Each condition included technical replicates (n = 3) per experiment. Concentration–response data from ≥3 independent experiments were fit to a four-parameter logistic (4PL) model in GraphPad Prism 10.1.2 (GraphPad Software, San Diego, CA, USA) (log10-transformed concentrations; bottom and top unconstrained).
We advanced KB-2777, the series member with the highest selectivity index (SI), to evaluate antiviral activity against α-coronaviruses (HCoV-NL63, PEDV) and a β-coronavirus (HCoV-OC43) by RT-qPCR. […] Representative cytopathic effect (CPE) micrographs (KB-2777 20 µM vs. virus-only) for HCoV-NL63, HCoV-OC43, and PEDV are provided in the Supplementary Information (Figure S16).

HCoV-NL63 [2] = test: Time-of-addition, spike (S) protein immunofluorescence assay, HCoV-NL63/LLC-MK2; type: cell-based, Human coronavirus NL63
Procedure: At 48 h post-infection, cells were fixed in 4% paraformaldehyde for 15 min, permeabilized with 0.1% Triton X-100, and blocked with 5% BSA. Samples were incubated with a virus-specific rabbit anti-S protein primary antibody, followed by a goat anti-rabbit IgG H&L (FITC) secondary antibody (Supplementary Table S1) and Hoechst nuclear counterstain. Images were acquired on an epifluorescence microscope. Using Fiji, binary thresholding and particle analysis (or Cell Counter) were applied to count the total number of cells and the number of S-positive cells per field, and the infection rate per well was calculated as (S-positive cells/total cells × 100%). At least eight randomly selected fields per well were analyzed.
TOA experiments were performed in HCoV-NL63–infected LLC-MK2 cells using four regimens: • Full: compound present from −24 h to 48 h relative to infection. • Pre-treatment: −24 h to −1 h, wash at −1 h, then infection in drug-free medium. • Co-treatment: −1 h to 0 h during adsorption only, wash at 0 h. • Post-treatment: 0 h to 48 h after adsorption.
Unless otherwise specified, infections were carried out at 100 TCID50 per well with 1 h adsorption at 37 °C, and compounds were used at 20 µM. Primary readout was S protein IFA at 48 h; EZ-Cytox and TCID50 at 48 h for the same regimens are provided in Supplementary Data (Figures S14 and S15).

[3] = Cytotoxicity (EZ-Cytox WST) in LLC-MK2 cells; type: cell-based; settings: rhesus monkey, 72 h exposure
Procedure: as §1

[4] = Visible crystals or precipitates in the cell assay (soluble range); type: physicochemical; settings: cell assay medium; without loss of viability or morphological change
Procedure: (§2) We screened 11 oxazole-4-carboxamide derivatives (Figure 1) against HCoV-NL63 in LLC-MK2 cells and quantified antiviral activity and cytotoxicity (Figure 2). Several derivatives inhibited NL63 with distinct selectivity profiles. […] Visible crystals or precipitates formed at ≥50 µM without loss of viability or morphological change; therefore, downstream assays were performed at ≤25 µM.

HCoV-NL63 [5] = test: Extracellular viral RNA by RT-qPCR of supernatants, HCoV-NL63/LLC-MK2; type: cell-based, Human coronavirus NL63
Procedure: […] Viral RNA was extracted using the QIAamp Viral RNA Mini Kit (Qiagen, Hilden, Germany)according to the manufacturer’s instructions and quantified by one-step RT-qPCR on a real-time thermocycler.
EC50 values were determined from concentration–response curves generated by 2-fold serial dilutions, with at least four concentration points per curve. Each measurement was performed in triplicate technical replicates. Unless otherwise indicated, data are presented as mean ± SEM from three independent biological experiments (n = 3).
For absolute quantification, synthetic DNA (oligonucleotide) standards corresponding to the NL63, OC43, and PEDV amplicons were used. Ten-fold serial dilutions were prepared to generate standard curves. Ct values were interpolated against the curves to obtain gene copies per reaction and converted to genome copies per mL by accounting for extraction and elution volumes and the qPCR input volume.

HCoV-NL63 [6] = test: Primary antiviral screening (virus inhibition) in HCoV-NL63-infected LLC-MK2 cells; type: cell-based, Human coronavirus NL63
Procedure: For antiviral activity, cells in 96-well plates were infected and treated with test compounds as indicated and incubated for 48–72 h. Cell viability was quantified by WST (EZ-Cytox) at 450 nm on the same reader. Cytoprotective effect was calculated by normalizing to infected DMSO controls and converting to percent protection: % Protection = ((V_drug + virus − V_virus-only)/(V_mock − V_virus-only)) × 100.
as §2

Compound: COc1cccc(-c2oc(-c3ccc(C(F)(F)F)cc3)nc2C(=O)NCC2CC2)c1 [KB-2777, N-(cyclopropylmethyl)-5-(3-methoxyphenyl)-2-(4-(trifluoromethyl)phenyl)Oxazole-4-Carboxamide]
- cytotoxicity in mock-infected cells [1]: without cytotoxicity; also recorded: no overt cytotoxicity
- inhibition by S protein IFA, post-treatment (HCoV-NL63 [2]; HCoV-NL63/LLC-MK2, 20 µM, 0 h to 48 h, readout 48 h): retained measurable activity
- inhibition by S protein IFA, co-treatment (HCoV-NL63 [2]; HCoV-NL63/LLC-MK2, 20 µM, adsorption only (−1 h to 0 h), readout 48 h, vs virus-only DMSO control): little effect
- inhibition by S protein IFA, pre-treatment (HCoV-NL63 [2]; HCoV-NL63/LLC-MK2, 20 µM, pre-exposure with washout, readout 48 h): retained measurable activity
- inhibition by S protein IFA, full regimen (HCoV-NL63 [2]; HCoV-NL63/LLC-MK2, 20 µM, −24 h to 48 h, readout 48 h): greatest inhibition
- time-of-addition effect-size order of regimens (HCoV-NL63 [2]; full, pre, co, post regimens, across readouts): full > pre ≈ post > co; also recorded: full » pre ≈ post » co
- CC50 at 72 h [3]: > 50 µM
- concentration at which visible crystals or precipitates formed [4]: ≥ 50 µM
- inhibition of viral RNA at 24 h (HCoV-NL63 [5]; HCoV-NL63, post-treatment regimen, 24 h post-infection, 0–25 µM): minimal
- EC50 (HCoV-NL63 [5]; Human coronavirus NL63, LLC-MK2, HCoV-NL63, post-treatment regimen, 48 h post-infection, read-out: EC50 (viral RNA, RT-qPCR) at 48 h): 2.42 µM
- EC50 (HCoV-NL63 [5]; Human coronavirus NL63, LLC-MK2, HCoV-NL63, post-treatment regimen, 72 h post-infection, read-out: EC50 (viral RNA, RT-qPCR) at 72 h): 5.25 µM
- EC50 (HCoV-NL63 [5]; Human coronavirus NL63, HCoV-NL63/LLC-MK2, 72 h post-infection, n = 3, read-out: EC50 (viral RNA, RT-qPCR)): 5.27 µM
- SI (=CC50/EC50) (HCoV-NL63 [6]; HCoV-NL63/LLC-MK2): > 8 and >8.28
- EC50 (HCoV-NL63 [6]; Human coronavirus NL63, LLC-MK2, HCoV-NL63/LLC-MK2, primary screen, read-out: EC50): 6.04 µM

— paper PMC12655682, “Screening-Identified Oxazole-4-Carboxamide KB-2777 Exhibits In Vitro Anti-Coronavirus Activity” (Pharmaceutics, 2025)
